Results published in ChEMBL document CHEMBL3045546, “Synthesis and antimicrobial screening of 4-thiazolidinone and 2-azetidinone derivatives of piperazine” (2013).
Converted amounts (≈) assume the structure as drawn.

Columns and labels:
Format in all cases: functional
Trichoderma viride = assay: Antimicrobial activity against Hypocrea rufa ATCC 52440 assessed as growth inhibition by broth dilution method
Aspergillus flavus = assay: Antimicrobial activity against Aspergillus flavus ATCC 15517 assessed as growth inhibition by broth dilution method
Bacillus cereus = assay: Antimicrobial activity against Bacillus cereus ATCC 11778 assessed as growth inhibition by broth dilution method
Micrococcus luteus = assay: Antimicrobial activity against Micrococcus luteus ATCC 4698 assessed as growth inhibition by broth dilution method
Candida albicans = assay: Antimicrobial activity against Candida albicans ATCC 10231 assessed as growth inhibition by broth dilution method
[1] = test system: Staphylococcus epidermidis; assay: Antimicrobial activity against Staphylococcus epidermidis ATCC 12228 assessed as growth inhibition by broth dilution method
Bacillus pumilus = assay: Antimicrobial activity against Bacillus pumilus ATCC 14884 assessed as growth inhibition by broth dilution method
Staphylococcus aureus = assay: Antimicrobial activity against Staphylococcus aureus ATCC 25923 assessed as growth inhibition by broth dilution method
Salmonella typhi = assay: Antimicrobial activity against Salmonella enterica subsp. enterica serovar Typhi ATCC 19430 assessed as growth inhibition by broth dilution method
Aspergillus awamori = assay: Antimicrobial activity against Aspergillus awamori ATCC 22342 assessed as growth inhibition by broth dilution method
Trichophyton longifusum = assay: Antimicrobial activity against Trichophyton longifusum ATCC 22397 assessed as growth inhibition by broth dilution method
Aspergillus fumigatus = assay: Antimicrobial activity against Aspergillus fumigatus assessed as growth inhibition by broth dilution method
Rhizoctonia solani = assay: Antimicrobial activity against Rhizoctonia solani ATCC 76131 assessed as growth inhibition by broth dilution method
Alternaria alternata = assay: Antimicrobial activity against Alternaria alternata ATCC 66868 assessed as growth inhibition by broth dilution method
Proteus vulgaris = assay: Antimicrobial activity against Proteus vulgaris ATCC 13315 assessed as growth inhibition by broth dilution method
Bacillus subtilis = assay: Antimicrobial activity against Bacillus subtilis ATCC 6633 assessed as growth inhibition by broth dilution method
Escherichia coli = assay: Antimicrobial activity against Escherichia coli ATCC 25922 assessed as growth inhibition by broth dilution method
Fusarium solani = assay: Antimicrobial activity against Fusarium solani ATCC 38136 assessed as growth inhibition by broth dilution method
Klebsiella pneumoniae = assay: Antimicrobial activity against Klebsiella pneumoniae ATCC 13883 assessed as growth inhibition by broth dilution method
Microsporum canis = assay: Antimicrobial activity against Arthroderma otae ATCC 11622 assessed as growth inhibition by broth dilution method
Pseudomonas aeruginosa = assay: Antimicrobial activity against Pseudomonas aeruginosa ATCC 10145 assessed as growth inhibition by broth dilution method
Proteus mirabilis = assay: Antimicrobial activity against Proteus mirabilis ATCC 49565 assessed as growth inhibition by broth dilution method
Staphylococcus hominis = assay: Antimicrobial activity against Staphylococcus hominis ATCC 27844 assessed as growth inhibition by broth dilution method
Aspergillus niger = assay: Antimicrobial activity against Aspergillus niger ATCC 9142 assessed as growth inhibition by broth dilution method

Structure (SMILES) | MIC (Trichoderma viride) [µg/mL] | MIC (Aspergillus flavus) [µg/mL] | MIC (Bacillus cereus) [µg/mL] | MIC (Micrococcus luteus) [µg/mL] | MIC (Candida albicans) [µg/mL] | MIC [1] [µg/mL] | MIC (Bacillus pumilus) [µg/mL] | MIC (Staphylococcus aureus) [µg/mL] | MIC (Salmonella typhi) [µg/mL] | MIC (Aspergillus awamori) [µg/mL] | MIC (Trichophyton longifusum) [µg/mL] | MIC (Aspergillus fumigatus) [µg/mL] | MIC (Rhizoctonia solani) [µg/mL] | MIC (Alternaria alternata) [µg/mL] | MIC (Proteus vulgaris) [µg/mL] | MIC (Bacillus subtilis) [µg/mL] | MIC (Escherichia coli) [µg/mL] | MIC (Fusarium solani) [µg/mL] | MIC (Klebsiella pneumoniae) [µg/mL] | MIC (Microsporum canis) [µg/mL] | other results
O=C1CSC(c2ccco2)N1CCN1CCNCC1 (stereo not drawn) | 150 (≈ 533 µM) | 150 (≈ 533 µM) | 150 (≈ 533 µM) | 75 (≈ 267 µM) | 300 (≈ 1070 µM) | 300 (≈ 1070 µM) | 150 (≈ 533 µM) | 150 (≈ 533 µM) | 75 (≈ 267 µM) | 150 (≈ 533 µM) | 300 (≈ 1070 µM) | 150 (≈ 533 µM) | 150 (≈ 533 µM) | 300 (≈ 1070 µM) | 150 (≈ 533 µM) | 75 (≈ 267 µM) | 75 (≈ 267 µM) | 300 (≈ 1070 µM) | 150 (≈ 533 µM) | 300 (≈ 1070 µM) | MIC (Pseudomonas aeruginosa): 75 µg/mL (≈ 267 µM); MIC (Proteus mirabilis): 150 µg/mL (≈ 533 µM); MIC (Staphylococcus hominis): 75 µg/mL (≈ 267 µM); MIC (Aspergillus niger): 300 µg/mL (≈ 1070 µM)
COc1ccc(C2C(Cl)C(=O)N2CCN2CCN(C(=O)CCl)CC2)cc1O (stereo not drawn) | 18.8 (≈ 45 µM) | 18.8 (≈ 45 µM) | 9.37 (≈ 22.5 µM) | 4.68 (≈ 11.2 µM) | 18.8 (≈ 45 µM) | 9.37 (≈ 22.5 µM) | 9.37 (≈ 22.5 µM) | 9.37 (≈ 22.5 µM) | 4.68 (≈ 11.2 µM) | 18.8 (≈ 45 µM) | 9.73 (≈ 23.4 µM) | 18.8 (≈ 45 µM) | 18.8 (≈ 45 µM) | 9.73 (≈ 23.4 µM) | 9.37 (≈ 22.5 µM) | 4.68 (≈ 11.2 µM) | 9.37 (≈ 22.5 µM) | 18.8 (≈ 45 µM) | 9.37 (≈ 22.5 µM) | 18.8 (≈ 45 µM) | MIC (Pseudomonas aeruginosa): 9.37 µg/mL (≈ 22.5 µM); MIC (Proteus mirabilis): 9.37 µg/mL (≈ 22.5 µM); MIC (Staphylococcus hominis): 9.37 µg/mL (≈ 22.5 µM); MIC (Aspergillus niger): 18.8 µg/mL (≈ 45 µM)
O=C1CSC(c2cccc(O)c2)N1CCN1CCNCC1 (stereo not drawn) | 37.5 (≈ 122 µM) | 37.5 (≈ 122 µM) | 18.8 (≈ 61 µM) | 18.8 (≈ 61 µM) | 37.5 (≈ 122 µM) | 18.8 (≈ 61 µM) | 37.5 (≈ 122 µM) | 37.5 (≈ 122 µM) | 18.8 (≈ 61 µM) | 37.5 (≈ 122 µM) | 37.5 (≈ 122 µM) | 37.5 (≈ 122 µM) | 37.5 (≈ 122 µM) | 75 (≈ 244 µM) | 37.5 (≈ 122 µM) | 37.5 (≈ 122 µM) | 37.5 (≈ 122 µM) | 75 (≈ 244 µM) | 37.5 (≈ 122 µM) | 37.5 (≈ 122 µM) | MIC (Pseudomonas aeruginosa): 37.5 µg/mL (≈ 122 µM); MIC (Proteus mirabilis): 18.8 µg/mL (≈ 61 µM); MIC (Staphylococcus hominis): 37.5 µg/mL (≈ 122 µM); MIC (Aspergillus niger): 37.5 µg/mL (≈ 122 µM)
O=C1CSC(c2ccc(O)cc2)N1CCN1CCNCC1 (stereo not drawn) | 18.8 (≈ 61 µM) | 18.8 (≈ 61 µM) | 9.37 (≈ 30.5 µM) | 9.37 (≈ 30.5 µM) | 9.73 (≈ 31.7 µM) | 9.37 (≈ 30.5 µM) | 9.37 (≈ 30.5 µM) | 9.37 (≈ 30.5 µM) | 9.37 (≈ 30.5 µM) | 18.8 (≈ 61 µM) | 9.73 (≈ 31.7 µM) | 9.37 (≈ 30.5 µM) | 18.8 (≈ 61 µM) | 18.8 (≈ 61 µM) | 4.68 (≈ 15.2 µM) | 4.68 (≈ 15.2 µM) | 4.68 (≈ 15.2 µM) | 9.73 (≈ 31.7 µM) | 9.37 (≈ 30.5 µM) | 18.8 (≈ 61 µM) | MIC (Pseudomonas aeruginosa): 9.37 µg/mL (≈ 30.5 µM); MIC (Proteus mirabilis): 9.37 µg/mL (≈ 30.5 µM); MIC (Staphylococcus hominis): 9.37 µg/mL (≈ 30.5 µM); MIC (Aspergillus niger): 18.8 µg/mL (≈ 61 µM)
O=C1CSC(c2ccccc2)N1CCN1CCNCC1 (stereo not drawn) | 75 (≈ 257 µM) | 75 (≈ 257 µM) | 37.5 (≈ 129 µM) | 75 (≈ 257 µM) | 37.5 (≈ 129 µM) | 75 (≈ 257 µM) | 75 (≈ 257 µM) | 37.5 (≈ 129 µM) | 18.8 (≈ 64.3 µM) | 75 (≈ 257 µM) | 75 (≈ 257 µM) | 37.5 (≈ 129 µM) | 37.5 (≈ 129 µM) | 75 (≈ 257 µM) | 18.8 (≈ 64.3 µM) | 37.5 (≈ 129 µM) | 37.5 (≈ 129 µM) | 37.5 (≈ 129 µM) | 37.5 (≈ 129 µM) | 37.5 (≈ 129 µM) | MIC (Pseudomonas aeruginosa): 37.5 µg/mL (≈ 129 µM); MIC (Proteus mirabilis): 37.5 µg/mL (≈ 129 µM); MIC (Staphylococcus hominis): 37.5 µg/mL (≈ 129 µM); MIC (Aspergillus niger): 75 µg/mL (≈ 257 µM)
COc1cc(C2SCC(=O)N2CCN2CCNCC2)ccc1O (stereo not drawn) | 18.8 (≈ 55.6 µM) | 18.8 (≈ 55.6 µM) | 9.37 (≈ 27.8 µM) | 4.68 (≈ 13.9 µM) | 18.8 (≈ 55.6 µM) | 9.37 (≈ 27.8 µM) | 9.37 (≈ 27.8 µM) | 9.37 (≈ 27.8 µM) | 9.37 (≈ 27.8 µM) | 9.73 (≈ 28.8 µM) | 9.73 (≈ 28.8 µM) | 18.8 (≈ 55.6 µM) | 18.8 (≈ 55.6 µM) | 9.73 (≈ 28.8 µM) | 9.37 (≈ 27.8 µM) | 9.37 (≈ 27.8 µM) | 9.37 (≈ 27.8 µM) | 9.73 (≈ 28.8 µM) | 9.37 (≈ 27.8 µM) | 18.8 (≈ 55.6 µM) | MIC (Pseudomonas aeruginosa): 9.37 µg/mL (≈ 27.8 µM); MIC (Proteus mirabilis): 9.37 µg/mL (≈ 27.8 µM); MIC (Staphylococcus hominis): 9.37 µg/mL (≈ 27.8 µM); MIC (Aspergillus niger): 9.73 µg/mL (≈ 28.8 µM)
COc1ccc(C2SCC(=O)N2CCN2CCNCC2)cc1 (stereo not drawn) | 9.73 (≈ 30.3 µM) | 18.8 (≈ 58.3 µM) | 4.68 (≈ 14.6 µM) | 9.37 (≈ 29.1 µM) | 9.73 (≈ 30.3 µM) | 9.37 (≈ 29.1 µM) | 9.37 (≈ 29.1 µM) | 9.37 (≈ 29.1 µM) | 4.68 (≈ 14.6 µM) | 9.73 (≈ 30.3 µM) | 18.8 (≈ 58.3 µM) | 9.73 (≈ 30.3 µM) | 9.73 (≈ 30.3 µM) | 18.8 (≈ 58.3 µM) | 9.37 (≈ 29.1 µM) | 9.37 (≈ 29.1 µM) | 9.37 (≈ 29.1 µM) | 18.8 (≈ 58.3 µM) | 9.37 (≈ 29.1 µM) | 18.8 (≈ 58.3 µM) | MIC (Pseudomonas aeruginosa): 9.37 µg/mL (≈ 29.1 µM); MIC (Proteus mirabilis): 9.37 µg/mL (≈ 29.1 µM); MIC (Staphylococcus hominis): 4.68 µg/mL (≈ 14.6 µM); MIC (Aspergillus niger): 18.8 µg/mL (≈ 58.3 µM)
